We go through one molecule from US6436986B1, “Glucocorticoid receptor antagonists for treatment of diabetes” (Abbott Laboratories, priority 1999, dated 2002).

For `COc1cccc2c1-c1cccc(C)c1C(NS(C)(=O)=O)(c1cccc(C(F)(F)F)c1)O2` (stereo not shown) [Example 1, N-[1-methoxy-7-methyl-6-[3-(trifluoromethyl)phenyl]-6H-dibenzo[b,d]pyran-6-yl]methanesulfonamide], the melting point lay within 217 to 218 °C.
